Eight compounds from ChEMBL document CHEMBL1154618, “Agonist vs antagonist behavior of delta opioid peptides containing novel phenylalanine analogues in place of Tyr(1)” (J Med Chem, 2009) can be followed below.

The target in assay [1] is Mu-type opioid receptor (Rattus norvegicus, UniProt P33535). In words: Displacement of [3H]DAMGO from mu opioid receptor in rat brain membrane. It counts as cell membranes.
For assay [2], the target named is Mu-type opioid receptor (Cavia porcellus, UniProt P97266). In words: Agonist activity at mu opioid receptor in guinea pig ileum assessed as effect on muscle contraction. Format: functional, tissue-based.
Assay [3] has as its target Kappa-type opioid receptor (Cavia porcellus, UniProt P41144). In words: Displacement of [3H]U69-593 from kappa opioid receptor in guinea pig brain membrane. Format: cell membranes.
In assay [4] the target is Mu-type opioid receptor (Cavia porcellus) (UniProt P97266). The assay can be described thus: Antagonist activity at mu opioid receptor in guinea pig ileum assessed as inhibition of […]. Format: functional, tissue-based.
Assay [5] has as its target Delta-type opioid receptor (Mus musculus) (UniProt P32300). The assay can be described thus: Antagonist activity at delta opioid receptor in mouse vas deferens assessed as inhibition of DPDPE-stimulated muscle contraction. Format: functional, tissue-based.
The target of assay [6] is Delta-type opioid receptor (Rattus norvegicus, UniProt P33533). In words: Displacement of [3H]DSLET from delta opioid receptor in rat brain membrane. It counts as cell membranes.

Each structure is given as a SMILES string. Calls of active or inactive are those of the source. No cut-off for these calls is given here. Non-standard residues stand in square brackets, D forms with d. Residues, ends and D or L forms follow the SMILES beside them. Phe(2,6-Me2,4-CONH2) = Cc1cc(C(N)=O)cc(C)c1C[C@H](N)C(=O)O; Dmt = Cc1cc(O)cc(C)c1C[C@H](N)C(=O)O; Tic = O=C(O)[C@@H]1Cc2ccccc2CN1

Sequence of Mu-type opioid receptor (Cavia porcellus, UniProt P97266) (P97266 whole entry): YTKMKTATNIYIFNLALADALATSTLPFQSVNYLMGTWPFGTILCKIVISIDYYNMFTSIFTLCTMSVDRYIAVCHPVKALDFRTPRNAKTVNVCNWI
Sequence of Delta-type opioid receptor (Mus musculus) (P32300 whole entry): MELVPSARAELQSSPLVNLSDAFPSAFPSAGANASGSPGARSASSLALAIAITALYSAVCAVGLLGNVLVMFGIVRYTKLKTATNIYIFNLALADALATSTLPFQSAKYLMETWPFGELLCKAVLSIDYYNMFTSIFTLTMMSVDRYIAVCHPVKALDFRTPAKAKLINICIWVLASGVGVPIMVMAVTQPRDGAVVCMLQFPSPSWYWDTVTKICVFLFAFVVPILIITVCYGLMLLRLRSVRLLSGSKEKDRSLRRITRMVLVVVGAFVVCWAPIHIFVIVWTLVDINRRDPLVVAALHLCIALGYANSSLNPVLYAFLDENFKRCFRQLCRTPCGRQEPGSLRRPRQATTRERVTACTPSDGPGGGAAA
Sequence of Kappa-type opioid receptor (P41144 whole entry): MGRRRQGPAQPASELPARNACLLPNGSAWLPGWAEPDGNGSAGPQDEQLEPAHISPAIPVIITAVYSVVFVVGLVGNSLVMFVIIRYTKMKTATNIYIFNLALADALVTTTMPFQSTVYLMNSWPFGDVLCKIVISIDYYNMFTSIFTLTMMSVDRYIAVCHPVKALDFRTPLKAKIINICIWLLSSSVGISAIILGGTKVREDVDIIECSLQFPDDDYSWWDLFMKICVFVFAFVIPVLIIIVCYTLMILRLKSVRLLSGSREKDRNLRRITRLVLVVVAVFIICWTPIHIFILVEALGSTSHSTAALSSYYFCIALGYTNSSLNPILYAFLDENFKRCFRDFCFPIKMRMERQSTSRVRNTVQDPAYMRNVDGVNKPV
Sequence of Mu-type opioid receptor (Cavia porcellus) (P97266 whole entry): as the sequence (P97266 whole entry) above
Sequence of Mu-type opioid receptor (Rattus norvegicus, UniProt P33535) (P33535 whole entry): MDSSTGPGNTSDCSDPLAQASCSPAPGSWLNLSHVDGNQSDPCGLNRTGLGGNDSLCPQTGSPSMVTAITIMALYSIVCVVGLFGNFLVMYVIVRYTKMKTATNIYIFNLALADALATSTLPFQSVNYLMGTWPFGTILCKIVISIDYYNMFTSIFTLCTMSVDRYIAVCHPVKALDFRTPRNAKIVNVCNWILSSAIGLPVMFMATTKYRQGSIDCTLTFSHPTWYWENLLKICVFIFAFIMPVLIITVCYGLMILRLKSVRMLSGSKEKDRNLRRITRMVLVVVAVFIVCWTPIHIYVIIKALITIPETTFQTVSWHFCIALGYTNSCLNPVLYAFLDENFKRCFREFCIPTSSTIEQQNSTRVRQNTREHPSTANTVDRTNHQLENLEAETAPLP
Sequence of Delta-type opioid receptor (P33533 whole entry): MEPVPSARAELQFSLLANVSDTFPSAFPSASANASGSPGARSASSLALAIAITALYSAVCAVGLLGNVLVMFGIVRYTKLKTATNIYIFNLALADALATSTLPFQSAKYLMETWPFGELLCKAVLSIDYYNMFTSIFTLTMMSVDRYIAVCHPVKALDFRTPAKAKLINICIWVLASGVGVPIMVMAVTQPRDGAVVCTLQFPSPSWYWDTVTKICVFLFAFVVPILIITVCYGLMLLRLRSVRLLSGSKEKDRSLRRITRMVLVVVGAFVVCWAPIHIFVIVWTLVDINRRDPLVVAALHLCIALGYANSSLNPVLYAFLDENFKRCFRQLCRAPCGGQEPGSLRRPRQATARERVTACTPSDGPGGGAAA

In the case of `Cc1cc(O)cc(C)c1C[C@H](N)C(=O)N1Cc2ccccc2C[C@H]1C(=O)O` (H-[Dmt]-[Tic]-OH), the inhibition constant (Ki) in assay [1] is 1.36 µM; in assay [3], above 1 µM. In assay [2], the IC50 entry is “Not Active”. Also, the Ke entry in assay [4] was “inactive”.
`N[C@@H](Cc1ccc(C(=O)NCCc2ccc(-c3ccccc3)cc2)cc1)C(=O)N1Cc2ccccc2C[C@H]1C(=O)N[C@@H](Cc1ccccc1)C(=O)O`: the Ke in assay [5] was 18.7 nM.
For the compound `Cc1cc(O)cc(C)c1C[C@H](N)C(=O)N1Cc2ccccc2C[C@H]1C(=O)N[C@@H](Cc1ccccc1)C(=O)N[C@@H](Cc1ccccc1)C(=O)O` (H-[Dmt][Tic]FF-OH), in assay [2] (read-out: IC50), the IC50 amounted to 0.769 µM. In addition, the Ke in assay [5] stood at 0.196 nM. This compound also had a Ki in assay [3] above 1 µM.
For the compound `N[C@@H](Cc1ccc(O)cc1)C(=O)N1Cc2ccccc2C[C@H]1C(=O)O` (H-Tyr-[Tic]-OH), the inhibitory constant (Ki) in assay [1] was above 1 µM; in assay [3] it was above 10 µM; in assay [6], 0.242 µM. The IC50 entry in assay [2] is on record as “Not Active”. Also, the Ke in assay [5] worked out at 263 nM. The Ke entry in assay [4] was “inactive”.
As to `Cc1cc(C(N)=O)cc(C)c1C[C@H](N)C(=O)N1Cc2ccccc2C[C@H]1C(=O)N[C@@H](Cc1ccccc1)C(=O)N[C@@H](Cc1ccccc1)C(=O)O` (H-[Phe(2,6-Me2,4-CONH2)][Tic]FF-OH), in assay [5], the Ke is 0.627 nM. Besides, the Ki was above 1 µM in assay [3] and 0.000501 µM in assay [6].
On to `Cc1cc(C(=O)NCCc2ccc(-c3ccccc3)cc2)cc(C)c1C[C@H](N)C(=O)N1Cc2ccccc2C[C@H]1C(=O)O`, for which, in assay [5], the Ke was found to be 1.76 nM.
In the case of `N[C@@H](Cc1ccc(O)cc1)C(=O)N1Cc2ccccc2C[C@H]1C(=O)N[C@@H](Cc1ccccc1)C(=O)N[C@@H](Cc1ccccc1)C(=O)O` (H-Y[Tic]FF-OH), the IC50 in assay [2] (read-out: IC50) was above 10 µM. This compound yielded a Ki in assay [3] above 1 µM.
Consider `N[C@@H](Cc1ccc(C(=O)NCCc2ccc(-c3ccccc3)cc2)cc1)C(=O)N1Cc2ccccc2C[C@H]1C(=O)O`, for which, in assay [5], the Ke was 17.8 nM.
